# Strand notation (5' to 3'): a small letter for the sugar, then the base; units joined by * are phosphorothioate-linked, units joined directly phosphodiester-linked; [ ] holds rarer units or linkages, { } end groups; capitals alone tell only the bases. [Uhd] = commercial lipid-conjugated uridine analogue Uhd (C16), from Hongene, reference; {VP} = (thio)vinylphosphonate on the antisense 5' nucleotide, as listed; e = 2'-O-(2-methoxyethyl) (MOE); m = 2'-O-methyl; f = 2'-fluoro
# Legend:
# target gene SOD1 [1] = test: Test Example 6: inhibitory activity of NM073, NM074 conjugated siRNA sequences on SOD1 by intrathecal administration to rats; type: in vivo, SD rats; settings: D28; for Cerebellum % Mean value of inhibition rate / Cortex % Mean value of inhibition rate / Hippocampus % Mean value of inhibition rate / Cervical segment % Mean value of inhibition rate / Lumbar segment % Mean value of inhibition rate / Thoracic segment % Mean value of inhibition rate: intrathecal, 900 μg per rat; for Cortex % Mean value of inhibition rate: cerebral cortex; for Cervical segment % Mean value of inhibition rate: spinal cord cervical segment; for Lumbar segment % Mean value of inhibition rate: spinal cord lumbar segment; for Thoracic segment % Mean value of inhibition rate: spinal cord thoracic segment
# Protocol: 6-8 Week-old SD rats were randomly grouped by body weight. Rats in each group were administered with siRNA by intrathecal administration, with an administration dose of 900 μg per rat. Injection was administered from rat spinal cord L5-L6, with an administration volume of 40 μL. Needle was retained for 2 min after completion of injection, and then slowly withdrawn. PBS control group was administered with the same volume of siRNA conjugate-free PBS solution. The day of administration was recorded as 0 day (D0), and the rats were sacrificed at observation point after administration. Different segments of spinal cord and different regions of brain were respectively taken and stored in the RNAlater.
# (§1) RNA extraction: the above tissue samples were taken out from the RNAlater, and smashed for 60 s in Tissuelyser type II full-automatic tissue homogenizer, and total RNAs of various tissue samples were extracted using the full-automatic nucleic acid extraction instrument and the nucleic acid extraction kit from Zhejiang Hanwei Science and Technology Co. Ltd. according to methods described in instructions.
# (§2) Reverse transcription reaction: 1 μg of the extracted total RNAs of the tissue samples were taken, and configured into 20 μL of reverse transcription system according to a method described in kit instructions by using a reverse transcription kit (Reverse Transcription System, A3500) from Promega Corporation and selecting Oligo (dT)15 reverse transcription primers, and the reverse transcription reaction was completed. After the reaction was ended, 80 μL of RNase-Free water was added into the reverse transcription system to provide cDNA solution for Real-time PCR detection.
# (§3) Real-time PCR detection: 20 μL of Real-time PCR reaction system per PCR detection well was configured according to a method described in kit instructions using SYBR™ Select Master Mix (Catalog number: 4472908) reagent from ABI company. Each detection system contained 5 μL of cDNA template obtained from the above reverse transcription reaction, 10 μL of SYBR™ Select Master Mix, 0.5 μL of 10 μM upstream primers, 0.5 μL of 10 μM downstream primers, and 4 μL of RNase-Free H2O. The configured reaction system was subjected to Real-time PCR amplification on ABI StepOnePlus PCR instrument by a three-step method, wherein an amplification procedure was pre-denaturation at 95° C. for 10 min, then denaturation at 95° C. for 30 s, annealing at 60° C. for 30 s, and extension at 72° C. for 30 s; and processes of denaturation, annealing, and extension were repeated for 40 cycles. Gene expression differences were calculated by the ΔΔCt method after completion of the procedure.
# (§4) In the real-time fluorescence quantitative PCR method, relative quantitative calculation of remaining expression level and inhibition rate of gene mRNA of interest in various test groups was performed by the ΔΔCt method, and the calculation method is as follows:
# The present test example evaluated, by an evaluation method for inhibitory activity on a target gene by intrathecal administration to rats, the inhibitory activity of siRNA sequence RZ899090 with the NM073 conjugation at Position 4, siRNA sequence RZ899091 with the NM074 conjugation at Position 4 and siRNA control sequence RZ899093 with the Uhd conjugation on the target gene SOD1 of interest in spinal cord and brain of rats. The above conjugation vectors were different in that NM073 was C18 aliphatic chain and NM074 was C20 aliphatic chain.
# 6-8 Week-old SD rats were randomly grouped by body weight, 5 per group, 4 groups in total. Rats in each group were dosed with the above siRNA conjugates by intrathecal administration, with an administration dose of 900 μg per rat, and an administration volume of 40 μL. PBS control group was administered with the same volume of siRNA conjugate-free PBS solution. The day of administration was recorded as D0, and the rats were sacrificed on D28 after administration. […]
# target gene SOD1 [2] = test: Test Example 8: inhibitory activity on target gene SOD1 in adipose tissues in different parts of mice; type: in vivo, C57BL/6j mice; settings: D14; for Subcutaneous fat % Mean value of inhibition rate: abdominal subcutaneous fat; for Subcutaneous fat % Mean value of inhibition rate / Brown fat on back % Mean value of inhibition rate / Paragonadal fat % Mean value of inhibition rate: tail vein injection 5 mg/kg
# Protocol: as §1, §2, §3, §4
# The present test example evaluated, by an evaluation method for inhibitory activity on a target gene in mice, the inhibitory activity of siRNA sequence RZ899090 with the sense strand with the NM073 conjugation at Position 4, siRNA sequence RZ899091 with the sense strand with the NM074 conjugation at Position 4, siRNA sequence RZ899078 with the sense strand with the NM202 conjugation at Position 6 and siRNA reference sequence RZ899093 with the sense strand with the Uhd conjugation at Position 4, siRNA reference sequence RZ899076 with the sense strand with the NM200 conjugation at Position 4 on the target gene SOD1 in adipose tissues of interest in mice.
# (§5) 6-8 Week-old C57BL/6j mice were randomly grouped by body weight, 5 per group, 6 groups in total. Mice in each group were dosed with the above siRNA conjugates by tail vein injection, with an administration dose of 5 mg/kg per mouse, and an administration volume of 150 μL. PBS control group was administered with the same volume of siRNA conjugate-free PBS solution. The day of administration was recorded as D0, and 5 mice in each group were sacrificed on D14 after administration. Paragonadal fat, abdominal subcutaneous fat, and brown fat on back were respectively taken. RNA extraction, reverse transcription, and real-time fluorescence quantitative detection were performed on various tissues according to the above method, and gene expression differences were calculated by the above ΔΔCt method.
# target gene SOD1 [3] = test: Test Example 9: inhibitory activity of lipid conjugated siRNA sequences on SOD1 in mouse muscle tissues; type: in vivo, C57BL/6j mice; settings: D14; for Diaphragm % Mean value of inhibition rate / Heart % Mean value of inhibition rate / Left quadriceps muscle % Mean value of inhibition rate: tail vein injection 5 mg/kg; for Left quadriceps muscle % Mean value of inhibition rate: left hind leg quadriceps muscle
# Protocol: as §1, §2, §3, §4
# The present test example evaluated, by an evaluation method for inhibitory activity on a target gene in mice, the inhibitory activity of siRNA sequence RZ899090 with the sense strand with the NM073 conjugation at Position 4, siRNA sequence RZ899091 with the sense strand with the NM074 conjugation at Position 4, siRNA sequence RZ899078 with the sense strand with the NM202 conjugation at Position 6 and siRNA reference sequence RZ899093 with the sense strand with the Uhd conjugation at Position 4, siRNA reference sequence RZ899076 with the sense strand with the NM200 conjugation at Position 4 on the target gene SOD1 of interest in muscle tissues in different parts of mice.
# as §5, with “Tissues such as left hind leg quadriceps muscle, diaphragm,” for “Paragonadal fat, abdominal subcutaneous fat,”, “heart tissues” for “brown fat on back”, “taken and stored in the RNAlater.” for “taken.”
substance,measurement,setting,value
RZ899090: siRNA sequence with the sense strand with the NM073 (C18) conjugation at Position 4; SEQ ID NO: 15 / 23 (sense UUUNAAUCCUCACUCUAAA; antisense UUUAGAGUGAGGAUUAAAAUG; NM073 (C18) conjugate at sense position 4; modified_base 1..2 OTHER; 2'-methoxy and 5'-thiophosphate modified nucleotides; modified_base 3 OTHER; 2'-methoxy modified nucleotide; modified_base 4 OTHER; n is the nucleotide analog NM073 as described in the disclosure.; modified_base 5..6 OTHER; 2'-methoxy modified nucleotides; modified_base 7..10 OTHER; 2'-fluoro modified nucleotides; modified_base 11..19 OTHER; modified_base 1 OTHER; 2'-methoxy and 5'-thiovinylphosphonate modified nucleotide; modified_base 2 OTHER; 2'-fluoro and 5'-thiophosphate modified nucleotide; modified_base 3..5 OTHER; …),Cerebellum % Mean value of inhibition rate,target gene SOD1 [1],56.97%
same,Cortex % Mean value of inhibition rate,target gene SOD1 [1],−15.00%
same,Hippocampus % Mean value of inhibition rate,target gene SOD1 [1],35.35%
same,level of inhibition on the target gene compared with the Uhd control conjugate (RZ899093),target gene SOD1 [1]; intrathecal 900 μg per rat,comparable level of inhibition in the spinal cord segment and cerebellum
same,Cervical segment % Mean value of inhibition rate,target gene SOD1 [1],69.98%
same,Lumbar segment % Mean value of inhibition rate,target gene SOD1 [1],93.93%
same,Thoracic segment % Mean value of inhibition rate,target gene SOD1 [1],94.17%
same,Subcutaneous fat % Mean value of inhibition rate,target gene SOD1 [2],71.07%
same,Brown fat on back % Mean value of inhibition rate,target gene SOD1 [2],81.60%
same,inhibitory activity compared with the NM200 conjugated reference sequence RZ899076,"target gene SOD1 [2]; paragonadal fat and brown fat on back, tail vein 5 mg/kg",equivalent or superior inhibitory activity
same,Paragonadal fat % Mean value of inhibition rate,target gene SOD1 [2],67.09%
same,inhibitory action on the target gene compared with RZ899076,"target gene SOD1 [2]; subcutaneous fat, tail vein 5 mg/kg",substantially comparable
same,Diaphragm % Mean value of inhibition rate,target gene SOD1 [3],43.77%
same,inhibitory activity compared with the NM200 conjugated reference sequence RZ899076,"target gene SOD1 [3]; heart tissues, tail vein 5 mg/kg",superior inhibitory activity
same,Heart % Mean value of inhibition rate,target gene SOD1 [3],67.88%
same,Left quadriceps muscle % Mean value of inhibition rate,target gene SOD1 [3],33.16%
same,inhibitory action on the left quadriceps muscle and diaphragm,"target gene SOD1 [3]; left quadriceps muscle and diaphragm, tail vein 5 mg/kg",certain inhibitory action
RZ899093: siRNA reference sequence with the sense strand with the Uhd (C16) conjugation at Position 4; SEQ ID NO: 13 / 23 (sense mU*mU*mU[Uhd]mAmAfUfCfCfUmCmAmCmUmCmUmAmAmA; antisense {VP}-mU*fU*mUmAmGfAmGmUmGmAmGfGmAfUeUfAmAmAmA*mU*mG) [reference compound],Cerebellum % Mean value of inhibition rate,target gene SOD1 [1],55.89%
same,Cortex % Mean value of inhibition rate,target gene SOD1 [1],36.29%
same,Hippocampus % Mean value of inhibition rate,target gene SOD1 [1],52.87%
same,Cervical segment % Mean value of inhibition rate,target gene SOD1 [1],69.68%
same,Lumbar segment % Mean value of inhibition rate,target gene SOD1 [1],95.31%
same,Thoracic segment % Mean value of inhibition rate,target gene SOD1 [1],94.90%
same,Subcutaneous fat % Mean value of inhibition rate,target gene SOD1 [2],85.92%
same,Brown fat on back % Mean value of inhibition rate,target gene SOD1 [2],77.13%
same,Paragonadal fat % Mean value of inhibition rate,target gene SOD1 [2],76.20%
same,Diaphragm % Mean value of inhibition rate,target gene SOD1 [3],64.76%
same,Heart % Mean value of inhibition rate,target gene SOD1 [3],51.52%
same,Left quadriceps muscle % Mean value of inhibition rate,target gene SOD1 [3],56.55%

# Source: patent publication US20260132165A1, “MODIFIED NUCLEOSIDE ANALOGUE AND USE THEREOF, AND NUCLEOSIDE ANALOGUE-CONTAINING DOUBLE-STRANDED OLIGONUCLEOTIDE AND USE THEREOF” (RIGERNA THERAPEUTICS (BEIJING) CO., LTD., priority 2023, published 2026)
